Measured values from US20060088475A1, “Self-immolative magnetic resonance imaging contrast agents sensitive to beta-glucuronidase” (Northwestern University, priority 2004, published 2006).
Blank lines part the entries; values can stand above or below the compound they belong to.

How the values were obtained:
[1] = phenol of the linker; cited from earlier work
[2] = biological target: T1, bovine liver β-glucuronidase (Bos taurus, UniProt A3KMY8); assay: LC-MS analysis of the enzyme reaction mixture; type: biochemical; conditions: phosphate buffer with 0.01% BSA, pH=7.4, 37° C., after 24 h
T1 construct: β-glucuronidase isolated from bovine liver was chosen for the current studies; purchased Sigma G 0251; host or cells: bovine liver (tissue isolate)
T1 sequence (A3KMY8 1-652): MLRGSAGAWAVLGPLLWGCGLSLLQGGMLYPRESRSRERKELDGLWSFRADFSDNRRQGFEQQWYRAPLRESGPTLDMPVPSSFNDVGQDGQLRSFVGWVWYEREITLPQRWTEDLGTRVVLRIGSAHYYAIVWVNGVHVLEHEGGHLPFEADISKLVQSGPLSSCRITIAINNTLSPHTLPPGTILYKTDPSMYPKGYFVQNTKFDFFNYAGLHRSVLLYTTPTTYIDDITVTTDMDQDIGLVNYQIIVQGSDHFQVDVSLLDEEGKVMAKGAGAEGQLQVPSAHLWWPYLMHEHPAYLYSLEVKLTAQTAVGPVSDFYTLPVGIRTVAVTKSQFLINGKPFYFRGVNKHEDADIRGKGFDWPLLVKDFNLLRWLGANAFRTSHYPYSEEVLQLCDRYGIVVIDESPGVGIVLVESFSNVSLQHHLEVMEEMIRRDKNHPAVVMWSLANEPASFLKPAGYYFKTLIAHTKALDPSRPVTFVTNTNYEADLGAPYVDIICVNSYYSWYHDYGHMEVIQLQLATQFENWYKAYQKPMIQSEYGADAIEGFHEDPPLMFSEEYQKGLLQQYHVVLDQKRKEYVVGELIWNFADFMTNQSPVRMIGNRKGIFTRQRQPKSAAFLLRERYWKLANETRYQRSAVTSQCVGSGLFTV
Description: LC-MS. […] The alcohol and 1 are readily distinguished by their absorption spectra (PDA), their appropriate negative mode ESI-MS patterns and through spiking with authentic compound. 2 was more difficult to detect but could be observed using fluorescence. The HPLC method was as follows: 0-10% B over 10 min, hold at 10% B for 15 min, with fluorescence using λex=271 nm, λem=314 nm.

[3] = T1 relaxivity at 60 MHz, 37° C. (inversion recovery, Gd(III) concentration by ICP-MS); type: physicochemical; conditions: for relaxivity r1 / increase in relaxivity on going from anion mimic to human serum: 37° C.; for decrease of relaxivity on addition of carbonate to the buffers: 24 mM carbonate added to MOPS or phosphate/BSA buffer; for decline of relaxivity in anion extracellular mimic: anion extracellular mimic (100 mM NaCl, 0.9 mM Na2HPO4, 30 mM NaHCO3, 0.13 mM sodium citrate, 2.3 mM sodium lactate) versus carbonate-containing buffers; for increase in relaxivity on going from anion mimic to human serum: male human blood serum versus extracellular anion mimic
Description: A 4 mM stock solution of either 1 or 2 in the appropriate buffer was diluted to give 500 μL each of seven approximate concentrations for each run: 0, 0.05, 0.15, 0.3, 0.5, 1.0, and 2.0 mM. The T1 of each concentration was determined using an inversion recovery pulse sequence with appropriate recycle delays on a Bruker mq60 Minispec. This instrument has a proton Larmor frequency of 60 MHz and operates at 37° C. The resulting curves were fit to a monoexponential function to obtain T10.10 μL of each sample was digested in concentrated nitric acid, diluted with water and analyzed for exact Gd(III) concentration using ICP-MS. The reciprocal of the longitudinal relaxation time was plotted against the concentration obtained from ICP-MS and fit to a straight line. All lines fit with R^2>0.998. This was performed for each buffer in duplicate. The buffers were all made to have the appropriate pH at 37° C. and remade if the pH had drifted more than 0.05 pH units upon storage. Anion mimic and carbonate containing buffers were made fresh daily.

[4] = biological target: T1, bovine liver β-glucuronidase; assay: Enzyme catalyzed hydrolysis kinetics monitored by bulk water T1 relaxation (magnetic resonance); type: biochemical
Description: (§1) General: Bovine liver β-glucuronidase (Type B-1, Sigma G 0251) stability in several buffers was assayed by incubating the enzyme in the desired buffer and sampling its activity at various time intervals using the Sigma quality control assay for β-glucuronidase from bovine liver. It was determined that MOPS and anion mimic (See, e.g., Parker, D. In Crown Compounds: Towards Future Applications; Cooper, S. R., Ed.; VCH: New York, 1992, pp 51-67) engendered the enzyme with poor stability, while 100 mM phosphate with 0.01% (w/v) bovine serum albumin (BSA), pH=7.4 at 37° C. gave suitable stability (>2 h at 37° C. without loss of activity) provided the enzyme concentration was greater than 0.5 mg/ml. The enzyme was stable for at least 24 h at 37° C. at its native pH of 5.0 in 100 mM acetate buffer. All kinetics measurements were made with 0.2 mM substrate, 1, in 510 μL buffer with either 1.0 mg/ml enzyme (those buffers at pH=7.4) or 0.1 mg/ml enzyme (pH=5.0 acetate buffer). For all buffers except serum (due to its opacity), the kinetics were determined simultaneously by both UV-visible and magnetic resonance. The runs were all continuous assays that are known to give the best data (See, e.g., Marangoni, A. G. Enzyme kinetics: a modern approach; Wiley-Interscience: Hoboken, N.J., 2003; Copeland, R. A. Enzymes: a practical introduction to structure, mechanism, and data analysis; VCH Publishers: New York, N.Y., 1996). Each run was performed in triplicate and two controls, one without enzyme and one without substrate, were also measured. […] This trend is in the opposite direction of the kinetics runs that show an increase in T1.
(§2) Magnetic Resonance: T1 was determined at intervals of 2 minutes for the first 30 min and 4 minutes for the next 30 min using a saturation recovery (90-T-90) pulse sequence using the Bruker mq60 operating as detailed in the relaxivity section. This sequence is less accurate than the inversion recovery method, but gives faster results. The runs were performed in triplicate. The substrate-only control was also examined in this manner.

[5] = tested on: bovine liver β-glucuronidase; assay: as above; type: biochemical; conditions: acetate buffer, over the course of an hour, no enzyme
Description: as §1, §2

[6] = biological target: T1, bovine liver β-glucuronidase; assay: Enzyme catalyzed hydrolysis kinetics monitored by UV-visible; type: biochemical; conditions: for initial rate: 0.2 mM 1, 1.0 mg/ml enzyme, pH 7.4, 37° C.
Description: as §1
UV-visible: The enzymatic hydrolysis of the pyranose from 1 and subsequent linker decomposition generates 4-hydroxy-3-nitrobenzyl alcohol. This compound has a maximum absorbance of 422 nm at pH=7.4. The molar absorptivity, E, was determined in triplicate from 0-0.2 mM, on an HP 8452A diode array spectrometer thermostated to 37° C. For 100 mM phosphate, 0.01% (w/v) BSA, pH=7.4 at 37° C. it is 2840±40 M^−1 cm^−1. For 100 mM phosphate, 24 mM NaHCO3, 0.01% (w/v) BSA, pH=7.4 at 37° C. it is 3010±50 M^−1 cm^−1. […] At pH=5.0 in acetate buffer, the maximum is at 354 nm. This overlaps with substrate, 1, absorption. The kinetics were sampled on the HP 8452A at 37° C. every 20 seconds for an hour. The initial rates for pH=7.4 buffers were determined through a linear fit of the first 10% change in absorbance. For the acetate buffer, only a half-life of conversion is reported. […] 4-hydroxy-3-nitrobenzyl alcohol was also present in the acetate runs as determined by LC-MS using 100 mM acetate pH=5 as solvent A.

[7] = Determination of q via Eu(III) phosphorescence lifetimes in H2O and D2O; type: physicochemical
Description: Determination of q: Europium(III) compound 4 was dissolved in H2O and D2O. The emission was monitored at 614 nm with excitation at 394 nm on a Hitachi F4500 fluorometer operating in Phosphorescence Lifetime (short) mode. The shortest lifetime measurable with this instrument is about 0.3 ms. Fifteen scans were averaged and fit to a monoexponential decay to give phosphorescent lifetimes. T(D2O)=1.274 ms; T (H2O)=0.527 ms. Using the equation of Supkowski and Horrocks (See, e.g., Supkowski and Horrocks, Inorg. Chim. Acta 2002, 340, 44-48), q=0.89 while the equation from Beeby et al. ^40generates q=1.04.

[8] = 10 mM MOPS, 100 mM NaCl, pH=7.4, 60 MHz
[9] = 10 mM pyridine, 100 mM sodium chloride buffer, pH=5.0, 60 MHz
[10] = 100 mM acetate buffer, pH=5.0, 60 MHz
[11] = 100 mM sodium phosphate, 0.01% (w/v) BSA, pH=7.4, 60 MHz

Compound: O=[N+]([O-])c1cc(CO)ccc1O [4-hydroxy-3-nitrobenzyl alcohol]
pKa [1]: about 7.5

presence of substrate in reaction mixture by LC/MS [2]: disappeared
increase in T1 during enzyme incubation (levels off) ([4]; 0.2 mM 1, 0.1 mg/ml β-glucuronidase, acetate buffer pH=5.0, around 35 min): 15%
increase in T1 during enzyme incubation ([4]; 0.2 mM 1, 1.0 mg/ml β-glucuronidase, human serum, over one hour, curve not saturated): 14%
decrease in T1 of substrate control without enzyme [5]: 2%
initial rate ([6]; phosphate/BSA (100 mM sodium phosphate, 0.01% BSA)): 158 ± 34 nmol product/h/mg enzyme
initial rate ([6]; phosphate/BSA/carbonate (24 mM NaHCO3)): 148 ± 26 nmol product/h/mg enzyme
time to complete conversion ([6]; pH=5 acetate buffer, enzyme concentration 10% of that at pH=7.4): ≤ 45 min
initial rate at pH=7.4 relative to standard substrate 4-methylumbelliferyl-β-D-glucuronide at pH=5.5 ([6]; pH=7.4 versus literature pH=5.5 data): roughly 8%
Compound: O=C([O-])CN1CCN(CCNC(=O)OCc2ccc(O[C@@H]3O[C@H](C(=O)O)[C@@H](O)[C@H](O)[C@H]3O)c([N+](=O)[O-])c2)CCN(CC(=O)[O-])CCN(CC(=O)[O-])CC1.[Gd+3] [Compound 1, Gadolinium(III) 1-(4-(2-(1-(4,7,10-tris-carboxymethyl-(1,4,7,10-tetrazaacyclododecyl)))-ethylcarbamoyloxymethyl)-2-nitrophenyl)-β-D-glucopyronuronate]
relaxivity r1 [3, 8]: higher value
relaxivity r1 [3, 9]: 3.89 ± 0.05 mM⁻¹ s⁻¹
decrease of relaxivity on addition of carbonate to the buffers ([3]; pH=7.4): 20-30%
relaxivity r1 [3, 10]: 2.53 ± 0.01 mM⁻¹ s⁻¹
relaxivity r1 [3, 11]: 4.73 mM⁻¹ s⁻¹
decrease in relaxivity between the pure compounds (1 to 2) ([3]; acetate buffer, pH=5.0): 15%
increase in relaxivity from 1 to 2 (dark to bright change) ([3]; anion extracellular mimic): 17%
decline of relaxivity in anion extracellular mimic [3]: 22%
relaxivity differential, 1 brighter than 2 ([3]; human serum): 27%
increase in relaxivity on going from anion mimic to human serum [3]: 240%
drop in relaxivity upon going from 1 to 2 ([3]; phosphate/BSA buffer (same trend as MOPS), pH=7.4): 20%

Compound: NCCN1CCN(CC(=O)[O-])CCN(CC(=O)[O-])CCN(CC(=O)[O-])CC1.[Gd+3] [Compound 2, Gadolinium(III)1-(2-aminoethyl)-4,7,10-(tris-carboxymethyl)-(1,4,7,10-tetrazaacyclododecane)]
relaxivity r1 [3, 8]: comparable to GdHP-DO3A
relaxivity r1 [3, 9]: 4.16 ± 0.09 mM⁻¹ s⁻¹
decrease of relaxivity on addition of carbonate to the buffers ([3]; pH=7.4): remained the same within error
relaxivity r1 [3, 10]: 2.16 ± 0.04 mM⁻¹ s⁻¹
relaxivity r1 [3, 11]: 3.68 mM⁻¹ s⁻¹
decline of relaxivity in anion extracellular mimic [3]: 6%
increase in relaxivity on going from anion mimic to human serum [3]: 150%

Compound: CC(O)CN1CCN(CC(=O)[O-])CCN(CC(=O)[O-])CCN(CC(=O)[O-])CC1.[Gd+3] (stereo not drawn) [GdHP-DO3A, reference compound]
relaxivity r1 [3, 8]: 2.99 ± 0.44 mM⁻¹ s⁻¹

phosphorescent lifetime T(D2O) ([7]; D2O, excitation 394 nm, emission 614 nm): 1.274 ms
q (inner-sphere water molecules) ([7]; Eu(III) fluorescence, absence of buffer salts): 1
phosphorescent lifetime T (H2O) ([7]; H2O, excitation 394 nm, emission 614 nm): 0.527 ms
q (inner-sphere water molecules) ([7]; equation from Beeby et al.): 1.04
q (inner-sphere water molecules) ([7]; equation of Supkowski and Horrocks): 0.89
Compound: Europium(III) 1-(4-(2-(1-(4,7,10-tris-carboxymethyl-(1,4,7,10-tetrazaacyclododecyl)))-ethylcarbamoyloxymethyl)-2-nitrophenyl)-β-D-glucopyronuronate [Compound 4]
